Source: patent US20170049793A1, “MOLECULAR ACTIVATORS OF THE WNT/BETA-CATENIN PATHWAY” (THE GENERAL HOSPITAL CORPORATION, priority 2009, published 2017)

Tests used:
[1] = system: nuclear β-catenin (Wnt/β-catenin pathway) in B16 cells; assay: Immunofluorescent staining of β-catenin in B16 cells; type: cell-based, murine; conditions: 1 μM BIO vs DMSO control
Procedure: A polyclonal rabbit anti-β-catenin antibody was used for detection of 1β-catenin (1:1000 dilution for immunoblot, 1:200 dilution for immunohistochemistry). Cells were grown on 18 mm glass coverslips, for 48-72 hours, fixed using 4% paraformaldehyde, permeabilized using 0.25% Triton X-100, and then blocked with 10% goat serum. Goat anti-rabbit Alexa Fluor-568 antibody (Molecular Probes; Eugene, Oreg.) was diluted 1:1000. Cells were counterstained for nucleic acid with DAPI (Molecular Probes; Eugene, Oreg.). Paraffin-embedded nevus sections were stained using an antibody dilution of 1:200. Cellular lysates were obtained by lysing cells on plate with a 0.1% NP-40 based buffer and analyzed by NuPage 4-12% gradient gels (Invitrogen; Grand Island, N.Y.). The WNTSA antibody was obtained from Cell Signaling Technologies (Danvers, Mass.).

[2] = system: Axin2 expression (Wnt/β-catenin pathway) in B16 cells; assay: Quantitative PCR of the Wnt/β-catenin target gene Axin2 in B16 cells; type: cell-based, murine; conditions: 1 μM BIO vs control cells
Procedure: Cells were cultured for approximately 72 hours until they reached 80-90% confluency. RNA was purified using the RNeasy kit using the manufacturer's protocol (Qiagen; Maryland, Md.). cDNA was synthesized using Superscript Reverse Transcriptase (Invitrogen; Grand Island, N.Y.). Light Cycler FastStart DNA Master SYBR Green1 (Roche; Mannheim, Germany) was used for real-time PCR as previously described (Major et al., Science 316:1043 (2007), which is hereby incorporated by reference in its entirety). Quantitative PCR results presented in the manuscript are representative of experiments performed on a minimum of three biologic replicates.

[3] = system: B16 melanoma cells; assay: MTT proliferation assay in B16 melanoma cells; type: cell-based, murine; conditions: 1 μM BIO vs control cells
[4] = Suitability for murine therapeutic trials (toxicity, serum levels); type: in vivo, mice; conditions: precluding murine therapeutic trials

SMILES: O=C1Nc2cc(Br)ccc2/C1=C1/Nc2ccccc2/C1=N\O [BIO, 6-bromoindirubin-3′-oxime]
- nuclear β-catenin (immunofluorescent staining) [1]: increased nuclear β-catenin
- Axin2 levels (quantitative PCR) [2]: increased Axing levels
- proliferation (MTT assay) [3]: decreased proliferation
- toxicity [4]: obstacles relating to both toxicity
